Experimental data published in patent US10729668B2, “Ketobutyrate compounds and compositions for treating age-related symptoms and diseases” (The Regents of the University of California, priority 2014, dated 2020).

Assays:
ATP synthase = ATP synthase inhibition
Isolated hearts = assay: Isolated heart ischemia and reperfusion (LVDP); details: 30 minutes ischemia, 60 minutes reperfusion, post-ischemic administration
Method: Isolated hearts were subjected to 30 minutes ischemia followed by 60 minutes of reperfusion with control buffer, 2-KB, (R)-2-hydroxybutyrate, (R)-3-hydroxybutyrate (also known as ketone body), α-KG, and the Complex I inhibitor rotenone. LVDP is shown as a function of time.

[1] = test system: nuo-6(qm200), daf-2(e1370), eat-2(ad1116) mutant C. elegans strains; assay: Lifespan of long-lived mutant C. elegans strains; format: in vivo, Caenorhabditis elegans
Description: The nuo-6 gene encodes the C. elegans ortholog of the NDUFB4/B15 subunit of the mitochondrial electron transport chain complex I, also known as the NADH dehydrogenase complex.

[2] = target: TOR (target of rapamycin) (Homo sapiens, UniProt P42345); assay: TOR inhibition
NADH dehydrogenase = assay: Electron flow assay, isolated liver mitochondria; format: biochemical, mouse
Method: Animal studies were performed under approved UCLA animal research protocols. Mitochondria from 3-month-old C57BL/6 mice were isolated. Briefly, livers were extracted, minced at 4° C. in MSHE+BSA (70 mM sucrose, 210 mM mannitol, 5 mM HEPES, 1 mM EGTA, and 0.5% fatty acid free BSA, pH 7.2), and rinsed several times to remove blood. All subsequent steps were performed on ice or at 4° C. The tissue was disrupted in 10 volumes of MSHE+BSA with a glass Dounce homogenizer (5-6 strokes) and the homogenate was centrifuged at 800×g for 10 minutes to remove tissue debris and nuclei. The supernatant was decanted through a cell strainer and centrifuged at 8,000×g for 10 minutes. […] Isolated mitochondrial respiration was measured by running coupling and electron flow assays as described. […] After basal readings, the sequential injections were as follows: 2 μM rotenone (Complex I inhibitor), 10 mM succinate (Complex II substrate), 4 μM antimycin A (Complex III inhibitor), and 10 mM/100 μM ascorbate/tetramethylphenylenediamine (Complex IV substrate). […]

male mice = assay: In vivo ischemia reperfusion injury, coronary artery occlusion; set-up: species or system mouse; details: 800 μM single bolus via tail vein at onset of reperfusion, 24 hours reperfusion, n=6
Method: The LAD is occluded in male mice for 30 minutes followed by a 24 hour reperfusion. At the onset of reperfusion one bolus of α-KB or PBS was applied via tail vein.
To examine the cardioprotective role of α-KB, an in vivo model of ischemia reperfusion injury was used. The left coronary artery was occluded for 30 minutes in male mice followed by 24 hours of reperfusion. One single bolus of PBS (vehicle control) or α-KB (800 μM) was applied through the tail vein at the onset of reperfusion (FIG. 9A).

C2C12 Cells = assay: Oxygen consumption rate (OCR) in C2C12 cells, Seahorse XF-24; format: cell-based, mouse; details: 1 hour treatment
Method: Measurement of oxygen consumption rates (OCR). OCR measurements were made using a Seahorse XF-24 analyzer (Seahorse Bioscience). C2C12 Cells were seeded in Seahorse XF-24 cell culture microplates at 30,000 cells per well in DMEM media supplemented with 10% FBS and 10 mM glucose, and incubated at 37° C. and 5% CO2 overnight. Treatment with α-KB or DMSO (vehicle control) was for 1 hour. Cells were washed in unbuffered DMEM medium (pH 7.4, 10 mM glucose) just before measurements, and maintained in this buffer with indicated concentrations of α-KB. OCR was measured three times under basal conditions and normalized to protein concentration per well.

GMC101 C. elegans strain = assay: Paralysis in C. elegans Alzheimer's disease model; format: in vivo, Caenorhabditis elegans; details: 4 mM, 30° C.
Method: Worms were age-synchronized by performing a timed egg lay for 3 hours with about 100 gravid adults and the eggs placed in a 20° C. incubator. Once the eggs had developed to the L4 stage at 42 hours post egg lay, they were picked onto NGM treatment plates containing 49.5 μM 5-fluoro-2′-deoxyuridine (FUDR, Sigma F0503) to prevent progeny production and either 4 mM α-KB or vehicle (water) control. The worms were then shifted to 30° C. to induce amyloid-beta aggregation and paralysis. […] Most paralyzed worms could still move their heads and part of their body. All worms were transferred to fresh treatment plates on Day 4.

## CCC(=O)C(=O)O [α-KB, α-ketobutyrate]
ATP synthase
  inhibition of ATP synthase: does not inhibit
Isolated hearts
  heart function after ischemia (LVDP): restores heart function after ischemia
[1]; daf-2(e1370)
  lifespan of daf-2(e1370) strain: does extend the lifespan
[1]; eat-2(ad1116)
  lifespan of eat-2(ad1116) strain: does extend the lifespan
[1]; nuo-6(qm200)
  lifespan of nuo-6(qm200) strain: inability of α-KB to extend the lifespan
[2]
  inhibition of TOR: does not inhibit
NADH dehydrogenase
  respiration in electron flow assay: only NADH dehydrogenase related respiration is inhibited
Male mice
  ratio of infarct size to AAR: 31.2±3.6
C2C12 Cells
  basal respiration: inhibited
  maximal respiration (mitochondrial respiration upon FCCP treatment): inhibited
GMC101 C. elegans strain
  delay of paralysis compared to vehicle treated worms: up to 37%
